# Experimental data as given in patent US11446287B2, “Compounds and methods for EP300 or CBP modulation and indications therefor” (Opna Immuno-Oncology SA, priority 2019, dated 2022).
# Target: T1, Recombinant human EP300 containing the bromodomain (EP300-BD (1040-1161)) (Homo sapiens, UniProt Q09472)
# T1 construct: Recombinant human EP300 bromodomain (EP300-BD (1040-1161)); made in house; host or cells: E. coli BL21-CodonPlus (DE3), modified pET vector
# T1 sequence (Q09472 1040-1161): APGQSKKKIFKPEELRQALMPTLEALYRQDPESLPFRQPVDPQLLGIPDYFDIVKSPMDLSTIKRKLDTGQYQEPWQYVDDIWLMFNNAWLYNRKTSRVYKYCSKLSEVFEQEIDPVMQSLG
# Assay: EP300 Alphascreen binding assay
# Outline: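 Displacement of a biotinylated acetyl-K56 histone H3 peptide from the N-His bromodomain construct (1040-1161) measured by AlphaScreen proximity, beads at 7.5 μg/ml final, read 60 min after addition. Protein, peptide and compound first incubated 1 h at room temperature, pH 7.5 HEPES buffer; IC50 by four-parameter logistic fit.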
row,Structure (SMILES),IC50 [nM]
1,"Cc1noc(C)c1-c1cnc2c(c1)c(-c1ccc(C(=O)O)cc1OC1CCC1)cn2[C@H]1CCOC1 [P-0350, (S)-3-cyclobutoxy-4-(5-(3,5-dimethylisoxazol-4-yl)-1-(tetrahydrofuran-3-yl)-1H-pyrrolo[2,3-b]pyridin-3-yl)benzoic acid]",0.1 to 1000
2,"Cc1nn(C(F)F)cc1-n1cc(-c2ccc(C(=O)O)cc2OC2CCC2)c2cc(-c3c(C)noc3C)cnc21 [P-0351, 3-cyclobutoxy-4-(1-(1-(difluoromethyl)-3-methyl-1H-pyrazol-4-yl)-5-(3,5-dimethylisoxazol-4-yl)-1H-pyrrolo[2,3-b]pyridin-3-yl)benzoic acid]",0.1 to 1000
3,"Cc1noc(C)c1-c1cnc2c(c1)c(-c1c(Cl)cc(C(=O)O)cc1OCC(F)F)cn2-c1cnn(C(F)F)c1C [P-0352, 3-chloro-5-(2,2-difluoroethoxy)-4-(1-(1-(difluoromethyl)-5-methyl-1H-pyrazol-4-yl)-5-(3,5-dimethylisoxazol-4-yl)-1H-pyrrolo[2,3-b]pyridin-3-yl)benzoic acid]",0.1 to 1000
4,"Cc1noc(C)c1-c1cnc2c(c1)c(-c1ccc(C(=O)O)cc1OC1CCC1)cn2-c1cnn(C(F)F)c1C [P-0353, 3-cyclobutoxy-4-(1-(1-(difluoromethyl)-5-methyl-1H-pyrazol-4-yl)-5-(3,5-dimethylisoxazol-4-yl)-1H-pyrrolo[2,3-b]pyridin-3-yl)benzoic acid]",0.1 to 1000
5,"Cc1noc(C)c1-c1cnc2c(c1)c(-c1ccc(C(=O)O)cc1OC(C)C)cn2-c1cnn(C(F)F)c1C [P-0354, 4-(1-(1-(difluoromethyl)-5-methyl-1H-pyrazol-4-yl)-5-(3,5-dimethylisoxazol-4-yl)-1H-pyrrolo[2,3-b]pyridin-3-yl)-3-isopropoxybenzoic acid]",0.1 to 1000
6,"Cc1noc(C)c1-c1cnc2c(c1)c(-c1c(Cl)cc(C(=O)O)cc1OC(F)(F)F)cn2C1CCOCC1 [P-0355, 3-chloro-4-(5-(3,5-dimethylisoxazol-4-yl)-1-(tetrahydro-2H-pyran-4-yl)-1H-pyrrolo[2,3-b]pyridin-3-yl)-5-(trifluoromethoxy)benzoic acid]",0.1 to 1000
7,"Cc1noc(C)c1-c1cnc2c(c1)c(-c1c(Cl)cc(C(=O)O)cc1OC1CCC1)cn2C(C1CC1)C1CC1 [P-0356, 3-chloro-5-cyclobutoxy-4-(1-(dicyclopropylmethyl)-5-(3,5-dimethylisoxazol-4-yl)-1H-pyrrolo[2,3-b]pyridin-3-yl)benzoic acid]",0.1 to 1000
8,"Cc1noc(C)c1-c1cnc2c(c1)c(-c1ccc(C(=O)O)cc1OC(C)C)cn2C1CCOCC1 [P-0357, 4-(5-(3,5-dimethylisoxazol-4-yl)-1-(tetrahydro-2H-pyran-4-yl)-1H-pyrrolo[2,3-b]pyridin-3-yl)-3-isopropoxybenzoic acid]",0.1 to 1000
9,"Cc1noc(C)c1-c1cnc2c(c1)c(-c1c(Cl)cc(C(=O)O)cc1OC1CCC1)cn2C1CCOCC1 [P-0358, 3-chloro-5-cyclobutoxy-4-(5-(3,5-dimethylisoxazol-4-yl)-1-(tetrahydro-2H-pyran-4-yl)-1H-pyrrolo[2,3-b]pyridin-3-yl)benzoic acid]",0.1 to 1000
10,"Cc1noc(C)c1-c1cnc2c(c1)c(-c1c(Cl)cc(C(=O)O)cc1OCC(F)F)cn2C1CCOCC1 [P-0359, 3-chloro-5-(2,2-difluoroethoxy)-4-(5-(3,5-dimethylisoxazol-4-yl)-1-(tetrahydro-2H-pyran-4-yl)-1H-pyrrolo[2,3-b]pyridin-3-yl)benzoic acid]",0.1 to 1000
11,"CCOc1cc(C(=O)O)c(F)cc1-c1cn([C@H]2CCOC2)c2ncc(-c3c(C)noc3C)cc12 [P-0360, (S)-4-(5-(3,5-dimethylisoxazol-4-yl)-1-(tetrahydrofuran-3-yl)-1H-pyrrolo[2,3-b]pyridin-3-yl)-5-ethoxy-2-fluorobenzoic acid]",0.1 to 1000
12,"Cc1noc(C)c1-c1cnc2c(c1)c(-c1c(Cl)cc(C(=O)O)cc1OC1CCC1)cn2[C@H]1CCOC1 [P-0361, (S)-3-chloro-5-cyclobutoxy-4-(5-(3,5-dimethylisoxazol-4-yl)-1-(tetrahydrofuran-3-yl)-1H-pyrrolo[2,3-b]pyridin-3-yl)benzoic acid]",0.1 to 1000
13,"COc1cc(C(=O)O)ncc1-c1cn(C2CCOCC2)c2ncc(-c3c(C)noc3C)cc12 [P-0362, 5-(5-(3,5-dimethylisoxazol-4-yl)-1-(tetrahydro-2H-pyran-4-yl)-1H-pyrrolo[2,3-b]pyridin-3-yl)-4-methoxypicolinic acid]",0.1 to 1000
14,"Cc1noc(C)c1-c1cnc2c(c1)c(-c1c(Cl)cc(C(=O)O)cc1OC1CC1)cn2C(C1CC1)C1CC1 [P-0363, 3-chloro-5-cyclopropoxy-4-(1-(dicyclopropylmethyl)-5-(3,5-dimethylisoxazol-4-yl)-1H-pyrrolo[2,3-b]pyridin-3-yl)benzoic acid]",0.1 to 1000
15,"Cc1noc(C)c1-c1cnc2c(c1)c(-c1ccc(C(=O)O)cc1OC(F)(F)F)cn2CC1(C#N)CCC1 [P-0364, 4-(1-((1-cyanocyclobutyl)methyl)-5-(3,5-dimethylisoxazol-4-yl)-1H-pyrrolo[2,3-b]pyridin-3-yl)-3-(trifluoromethoxy)benzoic acid]",0.1 to 1000
16,"Cc1nn(CC(C)(C)O)cc1-n1cc(-c2ccc(C(=O)O)cc2OC(F)(F)F)c2cc(-c3c(C)noc3C)cnc21 [P-0365, 4-(5-(3,5-dimethylisoxazol-4-yl)-1-(1-(2-hydroxy-2-methylpropyl)-3-methyl-1H-pyrazol-4-yl)-1H-pyrrolo[2,3-b]pyridin-3-yl)-3-(trifluoromethoxy)benzoic acid]",0.1 to 1000
17,"Cc1nn(CC(=O)N(C)C)cc1-n1cc(-c2ccc(C(=O)O)cc2OC(F)(F)F)c2cc(-c3c(C)noc3C)cnc21 [P-0366, 4-(1-(1-(2-(dimethylamino)-2-oxoethyl)-3-methyl-1H-pyrazol-4-yl)-5-(3,5-dimethylisoxazol-4-yl)-1H-pyrrolo[2,3-b]pyridin-3-yl)-3-(trifluoromethoxy)benzoic acid]",0.1 to 1000
18,"Cc1cc(C(=O)O)cc(OCC(F)F)c1-c1cn(C2CCOCC2)c2ncc(-c3c(C)noc3C)cc12 [P-0367, 3-(2,2-difluoroethoxy)-4-(5-(3,5-dimethylisoxazol-4-yl)-1-(tetrahydro-2H-pyran-4-yl)-1H-pyrrolo[2,3-b]pyridin-3-yl)-5-methylbenzoic acid]",0.1 to 1000
19,"COc1nc(C(=O)O)ccc1-c1cn(C2CCOCC2)c2ncc(-c3c(C)noc3C)cc12 [P-0368, 5-(5-(3,5-dimethylisoxazol-4-yl)-1-(tetrahydro-2H-pyran-4-yl)-1H-pyrrolo[2,3-b]pyridin-3-yl)-6-methoxypicolinic acid]",0.1 to 1000
20,"Cc1noc(C)c1-c1cnc2c(c1)c(-c1c(F)cc(C(=O)O)cc1OC(C)C)cn2C(C1CC1)C1CC1 [P-0369, 4-(1-(dicyclopropylmethyl)-5-(3,5-dimethylisoxazol-4-yl)-1H-pyrrolo[2,3-b]pyridin-3-yl)-3-fluoro-5-isopropoxybenzoic acid]",0.1 to 1000
21,"CCOc1cc(C(=O)O)cc(Cl)c1-c1cn(C(C2CC2)C2CC2)c2ncc(-c3c(C)noc3C)cc12 [P-0370, 3-chloro-4-(1-(dicyclopropylmethyl)-5-(3,5-dimethylisoxazol-4-yl)-1H-pyrrolo[2,3-b]pyridin-3-yl)-5-ethoxybenzoic acid]",0.1 to 1000
22,"CCOc1cc(C(=O)O)cc(Cl)c1-c1cn(C2CCOCC2)c2ncc(-c3c(C)noc3C)cc12 [P-0371, 3-chloro-4-(5-(3,5-dimethylisoxazol-4-yl)-1-(tetrahydro-2H-pyran-4-yl)-1H-pyrrolo[2,3-b]pyridin-3-yl)-5-ethoxybenzoic acid]",0.1 to 1000
23,"Cc1noc(C)c1-c1cnc2c(c1)c(-c1c(Cl)cc(C(=O)O)cc1OC(C)C)cn2C1CCOCC1 [P-0372, 3-chloro-4-(5-(3,5-dimethylisoxazol-4-yl)-1-(tetrahydro-2H-pyran-4-yl)-1H-pyrrolo[2,3-b]pyridin-3-yl)-5-isopropoxybenzoic acid]",0.1 to 1000
24,"CCOc1cc(C(=O)O)nc(OCC)c1-c1cn(C2CCOCC2)c2ncc(-c3c(C)noc3C)cc12 [P-0373, 5-(5-(3,5-dimethylisoxazol-4-yl)-1-(tetrahydro-2H-pyran-4-yl)-1H-pyrrolo[2,3-b]pyridin-3-yl)-4,6-diethoxypicolinic acid]",0.1 to 1000
25,"CCOc1cc(C(=O)O)c(F)c(OCC)c1-c1cn(C2CCOCC2)c2ncc(-c3c(C)noc3C)cc12 [P-0374, 4-(5-(3,5-dimethylisoxazol-4-yl)-1-(tetrahydro-2H-pyran-4-yl)-1H-pyrrolo[2,3-b]pyridin-3-yl)-3,5-diethoxy-2-fluorobenzoic acid]",0.1 to 1000
26,"CCOc1cc(C(=O)O)c(F)cc1-c1cn(C2CCOCC2)c2ncc(-c3c(C)noc3C)cc12 [P-0375, 4-(5-(3,5-dimethylisoxazol-4-yl)-1-(tetrahydro-2H-pyran-4-yl)-1H-pyrrolo[2,3-b]pyridin-3-yl)-5-ethoxy-2-fluorobenzoic acid]",0.1 to 1000
27,"CCOc1nc(C(=O)O)ccc1-c1cn(C2CCOCC2)c2ncc(-c3c(C)noc3C)cc12 [P-0376, 5-(5-(3,5-dimethylisoxazol-4-yl)-1-(tetrahydro-2H-pyran-4-yl)-1H-pyrrolo[2,3-b]pyridin-3-yl)-6-ethoxypicolinic acid]",0.1 to 1000
28,"CCOc1cc(C(=O)O)c(F)cc1-c1cn(-c2ccccc2F)c2ncc(-c3c(C)noc3C)cc12 [P-0377, 4-(5-(3,5-dimethylisoxazol-4-yl)-1-(2-fluorophenyl)-1H-pyrrolo[2,3-b]pyridin-3-yl)-5-ethoxy-2-fluorobenzoic acid]",0.1 to 1000
29,"Cc1noc(C)c1-c1cnc2c(c1)c(-c1ccc(C(=O)O)cc1OC(F)(F)F)cn2C1CCC1 [P-0378, 4-(1-cyclobutyl-5-(3,5-dimethylisoxazol-4-yl)-1H-pyrrolo[2,3-b]pyridin-3-yl)-3-(trifluoromethoxy)benzoic acid]",0.1 to 1000
